From patent US6150414A, “Compositions and methods for treating viral infections” (priority 1992, dated 2000)
Several values for one entry are separate records, joined by “and”; a condition that tells them apart may be missing. Equal values may be shown once. Read-outs that look alike come from different tables or passages of the source.

Assays:
[1] = test system: Friend Leukemia Virus; assay: Inhibition of Friend Leukemia Virus-induced splenomegaly in mice, compounds intraperitoneally 24 hours after virus (Example 1(a)); assay type: in vivo, BALB/c mice; parameters: Actual Spleen Weight / Average Spleen Weight: unit not given here; settings: for Spleen weight: single animal, listed as PS
Method in brief: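 BALB/c mice inoculated i.v. with 10^6 FFU Friend virus (spleen homogenate); compounds given i.p. 24 h later at 100 μg once, or 50, 100, 200 μg or 2×100 μg (second dose 24–48 h after first), two mice per group. Spleens weighed at day 10; percent inhibition from average spleen weights relative to negative and positive controls.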

[2] = test system: virus budding in virus-producing cells; assay: In vitro inhibition of virus budding: production of defective budded virions (Example 10); assay type: cell-based; settings: read-out: EC50 for production of defective budded virions
Description: (§1) The results presented above in Table IX are presented as EC50 concentrations. These are the effective concentrations which inhibit 50% of the viruses in micromolar concentrations.

[3] = test system: Friend Leukemia Virus; assay: In vivo inhibition of Friend Leukemia Virus splenomegaly, intravenous 1-2 hours post infection (Example 10); parameters: species or system mice; settings: Mus musculus, read-out: EC50 for FV-induced splenomegaly
Description: (§2) (3) In vivo inhibition of Friend Leukemia Virus Splenomegaly performed as described in Example 1 above except that the compounds were administered intravenously 1-2 hours post infection.
as §1

[4] = test system: retroviruses; assay: Comparison over two in vitro and one in vivo biological assays (Example 10)
Description: In order to investigate the structural features of hypericin which are essential for antiretroviral activity, numerous analogs and precursors of hypericin were examined for activity in two in vitro and one in vivo biological assay.
(1) Direct inactivation of retroviruses in vitro, performed as in Example 3 above;
as §2

[5] = test system: Friend Leukemia Virus; assay: Intravenous co-administration of pseudohypericin with Friend Leukemia Virus, splenomegaly; assay type: in vivo, mouse; settings: for Spleen Weights: single animal, listed as PS
Description: A different experimental design was used involving the simultaneous intravenous co-administration of Ps with the FV complex. In this case, the viral preparation was mixed with Ps at various concentrations and the mixture was injected into the mouse tail vein in a final volume of 0.5 ml. The mice were sacrificed ten days later, their spleens weighed, and the level of inhibition of splenomegaly subsequently determined.
The effect of intravenous co-administration of pseudohypericin (diluted in PBS with 1% EtOH) with FV, on viral-induced splenomegaly.

[6] = FV 2 × 10^5 FFU, PS 80 mcg/mouse
[7] = FV 2 × 10^5 FFU, PS 80 mcg/mouse 2 inject
[8] = FV 10^6 FFU, PS 80 mcg/mouse 2 injections
[9] = FV + PS 5 mcg i.v. co-administration
[10] = FV + PS 20 mcg i.v. co-administration
[11] = FV + PS 50 mcg i.v. co-administration

O=C1c2ccccc2C(=C2c3ccccc3C(=O)c3ccccc32)c2ccccc21 [Compound 36, Bianthrone]
inhibition in vivo at 0.1 mg ([1]; Mus musculus, ip, dose 2 × 100 (micrograms) i.p., Table III, read-out: Average Perdosage % Inhibition): 50% | inhibition in vivo at 0.05 mg ([1]; Mus musculus, ip, dose 50 (micrograms) i.p., Table III, read-out: Average Perdosage % Inhibition): 52% | inhibition in vivo at 0.1 mg ([1]; Mus musculus, ip, dose 100 (micrograms) i.p., Table III, read-out: Average Perdosage % Inhibition): 48% | inhibition in vivo at 0.2 mg ([1]; Mus musculus, ip, dose 200 (micrograms) i.p., Table III, read-out: Average Perdosage % Inhibition): 57% | Average Spleen Weight ([1]; dose 2 × 100 (micrograms) i.p., Table III): 1.1353 | Average Spleen Weight ([1]; dose 50 (micrograms) i.p., Table III): 1.0839 | Average Spleen Weight ([1]; dose 100 (micrograms) i.p., Table III): 1.1575 | Average Spleen Weight ([1]; dose 200 (micrograms) i.p., Table III): 0.9970 | Pooled Average % Inhibition ([1]; pooled over 50, 100, 200, 2 × 100 micrograms, Table III): 52% | EC50 ([2]; in vitro, Table IX): > 100 µM | EC50 ([3]; i.v. 1-2 hours post infection, Table IX): 98 µM

O=C(O)c1cc(O)c2c(=O)c3c(O)cc(O)c4c5c(O)cc(O)c6c(=O)c7c(O)cc(C(=O)O)c8c1c2c(c34)c(c65)c78 [WIS-1, Hypericin-dicarboxylic acid]
EC50 [2]: > 100 µM | loss of antiviral activity relative to parent ([4]; Example 10, structural comparison): diminished the antiviral activity

Cc1cc(O)c2c(=O)c3c(O)cc(O)c4c5c(O)cc(O)c6c(=O)c7c(O)cc(CO)c8c1c2c(c34)c(c65)c78 [pseudohypericin, Pseudohypericin]
median inhibition in spleen enlargement ([1]; 80 micrograms per mouse single injection, 2×10^5 FFU): 89.6% | inhibition of FV-induced splenomegaly / anti-retroviral activity ([1]; Example 1(a)): marked decrease in the spleen enlargement capacity of the Friend Leukemia Virus | % Inhib [1, 6]: 81.15% | Net change from control [1, 6]: 0.1292 | Spleen weight, mean (x) [1, 6]: 0.3138 ± 0.1197 gms | % Inhib [1, 7]: 89.58% | Net change from control [1, 7]: 0.0714 | Spleen weight, mean (x) [1, 7]: 0.2560 ± 0.0723 gms | Spleen weight [1, 7]: 0.3457 gms and 0.2784 gms and 0.2208 gms and 0.1791 gms | Spleen weight [1, 6]: 0.4924 gms and 0.2469 gms and 0.2722 gms and 0.2438 gms | % Inhib ([1]; FV 10^6 FFU, PS 80 mcg/mouse): 90.70% | Net change from control ([1]; FV 10^6 FFU, PS 80 mcg/mouse): 0.0841 | Spleen weight, mean (x) ([1]; FV 10^6 FFU, PS 80 mcg/mouse): 0.2687 ± 0.0621 gms | % Inhib [1, 8]: 93.82% | Net change from control [1, 8]: 0.0558 | Spleen weight, mean (x) [1, 8]: 0.2404 ± 0.0482 gms | Spleen weight [1, 8]: 0.2831 gms and 0.2761 gms and 0.2215 gms and 0.1810 gms | Spleen weight ([1]; FV 10^6 FFU, PS 80 mcg/mouse): 0.2457 gms and 0.3400 gms and 0.2938 gms and 0.1956 gms | median inhibition of splenomegaly ([1]; single injection of 80 micrograms per mouse): 93.8% | median inhibition of splenomegaly ([1]; two daily consecutive injections of 80 micrograms per mouse, 2×10^5 FFU): 81.7% | median inhibition of splenomegaly ([1]; two daily consecutive injections of 80 micrograms per mouse, 10^6 FFU): 90.7% | Spleen Weights, mean (x) [5, 9]: 0.3862 grams | Spleen Weights [5, 9]: 0.3425 grams and 0.3766 grams and 0.4005 grams and 0.4255 grams | % Inhibition ([5]; FV + PS 5 mcg per mouse i.v. co-administration): 75.44% | Spleen Weights, mean (x) [5, 10]: 0.1614 grams | Spleen Weights [5, 10]: 0.1655 grams and 0.1426 grams and 0.1433 grams and 0.1966 grams | % Inhibition ([5]; FV + PS 20 mcg per mouse i.v. co-administration): 100% | Spleen Weights, mean (x) [5, 11]: 0.1572 grams | Spleen Weights [5, 11]: 0.1830 grams and 0.1674 grams and 0.1422 grams and 0.1365 grams | % Inhibition ([5]; FV + PS 50 mcg per mouse i.v. co-administration): 100% | EC50 [3]: 3.8 µM | activity across assays ([4]; Example 10): high degree of activity in a more than one assay
